# Measurements taken from patent publication US20110104177A1, “HISTONE DEACETYLASE INHIBITORS, COMBINATION THERAPIES AND METHODS OF USE” (THE JOHNS HOPKINS UNIVERSITY, priority 2006, published 2011).
# T1: SIRT1 (Homo sapiens, UniProt Q96EB6)
# T1 sequence (Q96EB6 1-747): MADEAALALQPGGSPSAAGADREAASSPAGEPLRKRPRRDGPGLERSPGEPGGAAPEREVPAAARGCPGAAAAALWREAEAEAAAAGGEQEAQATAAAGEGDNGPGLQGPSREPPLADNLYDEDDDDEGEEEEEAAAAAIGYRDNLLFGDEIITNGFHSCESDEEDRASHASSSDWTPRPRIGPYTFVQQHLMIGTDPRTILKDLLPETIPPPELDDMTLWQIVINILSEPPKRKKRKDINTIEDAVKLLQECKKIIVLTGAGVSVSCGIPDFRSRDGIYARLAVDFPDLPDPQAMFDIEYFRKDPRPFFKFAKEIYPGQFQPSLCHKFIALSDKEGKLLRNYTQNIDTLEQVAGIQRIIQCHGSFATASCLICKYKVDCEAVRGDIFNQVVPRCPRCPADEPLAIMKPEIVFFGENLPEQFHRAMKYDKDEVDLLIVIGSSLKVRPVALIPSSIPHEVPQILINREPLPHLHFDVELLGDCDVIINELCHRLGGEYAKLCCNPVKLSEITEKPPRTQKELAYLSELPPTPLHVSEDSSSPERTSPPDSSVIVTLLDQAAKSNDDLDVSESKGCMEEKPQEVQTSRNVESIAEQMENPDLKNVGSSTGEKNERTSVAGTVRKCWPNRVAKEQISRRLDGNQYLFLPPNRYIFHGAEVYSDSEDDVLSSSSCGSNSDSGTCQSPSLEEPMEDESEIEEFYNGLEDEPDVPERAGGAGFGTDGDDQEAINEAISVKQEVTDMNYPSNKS
# B1: SIRT1H363Y: catalytically inactive, dominant negative inhibitor of SIRT1, expressed through retroviral infection (protein, UniProt Q96EB6 2-747, looked up, variant H363Y)
# NAD-dependent protein …: ADEAALALQPGGSPSAAGADREAASSPAGEPLRKRPRRDGPGLERSPGEPGGAAPEREVPAAARGCPGAAAAALWREAEAEAAAAGGEQEAQATAAAGEGDNGPGLQGPSREPPLADNLYDEDDDDEGEEEEEAAAAAIGYRDNLLFGDEIITNGFHSCESDEEDRASHASSSDWTPRPRIGPYTFVQQHLMIGTDPRTILKDLLPETIPPPELDDMTLWQIVINILSEPPKRKKRKDINTIEDAVKLLQECKKIIVLTGAGVSVSCGIPDFRSRDGIYARLAVDFPDLPDPQAMFDIEYFRKDPRPFFKFAKEIYPGQFQPSLCHKFIALSDKEGKLLRNYTQNIDTLEQVAGIQRIIQCYGSFATASCLICKYKVDCEAVRGDIFNQVVPRCPRCPADEPLAIMKPEIVFFGENLPEQFHRAMKYDKDEVDLLIVIGSSLKVRPVALIPSSIPHEVPQILINREPLPHLHFDVELLGDCDVIINELCHRLGGEYAKLCCNPVKLSEITEKPPRTQKELAYLSELPPTPLHVSEDSSSPERTSPPDSSVIVTLLDQAAKSNDDLDVSESKGCMEEKPQEVQTSRNVESIAEQMENPDLKNVGSSTGEKNERTSVAGTVRKCWPNRVAKEQISRRLDGNQYLFLPPNRYIFHGAEVYSDSEDDVLSSSSCGSNSDSGTCQSPSLEEPMEDESEIEEFYNGLEDEPDVPERAGGAGFGTDGDDQEAINEAISVKQEVTDMNYPSNKS
# Legend:
# [1] = biological target: T1, SIRT1; assay: Activity against the SIRT1 enzyme / SIRT1 deacetylase activity; assay type: biochemical
# [2] = test system: SFRP1, SFRP2, MLH1, CRBP1, E-cadherin genes in RKO cells; assay: RT-PCR re-expression of silenced tumor suppressor genes in RKO cells; assay type: cell-based, human; settings: RKO cells; for SFRP1 RT-PCR specific band: doses of 20 and 50 μM, 24 or 48 hours
# Experimental: To inhibit any residual SIRT1 protein, remaining RNAi-expressing cells were treated with 700 μM SPT and control samples were treated with DMSO for 24 hours. […] RKO cells were also treated with 0.5 μM Aza (24 hours), and samples were analyzed as described in FIG. 1A; RT-PCR was performed with intron-spanning primers specific for the two genes. GAPDH was also analyzed as a control. […] Control samples in which no reverse transcriptase was added were analyzed separately, and all were negative for amplification of the indicated genes. […] The level of TSG re-expression induced by Aza treatment or SIRT1 inhibition as described in FIG. 4(A) was compared to levels of expression in HCT116 cells in which the TSGs are basally expressed.
# (§1) Cell culture and retroviral infection. MDA-MB-231, MCF7, HCT116, SW480 RKO, and Phoenix cells (ATCC, Rockville, Md., United States) were cultured in Dulbecco's modified Eagle's medium supplemented with 10% fetal bovine serum and 1% penicillin/streptomycin (Invitrogen, Carlsbad, Calif., United States). Retroviral infection was performed using either single or multiple rounds of infection. Briefly, Phoenix cells were transfected with either pBabe, pBabe-SIRT1H363Y, pSUPERretro, pSUPERretro-SIRT1-RNAi-1-3 (NM_012238 positions 410, 589, and 1091; Oligo Engine, Seattle, Wash., United States) using Lipofectamine 2000 (Invitrogen). After 48 h of transfection, the medium containing retrovirus was collected, filtered, and supplemented with Polybrene prior to infection of target cells (MDA-MB-231, MCF7, or HCT116). Infected cells were either harvested 24-48 hours later or subjected to selection with 2-3 μg/ml puromycin for a week prior to harvest and analysis.
# (§2) RNA and protein preparation and analysis. Total RNA was extracted (Invitrogen) according to the manufacturer's instructions and subjected to reverse transcription followed by both quantitative real-time and semi-quantitative polymerase chain reaction. For quantitative real-time analyses, the QuantiTect SYBR Green PCR kit (Qiagen, Valencia, Calif., United States) was used and the amplification conditions consisted of an initial 10-minutes denaturation step at 95° C., followed by 40 cycles of denaturation at 95° C. for 15 s and annealing and extension for 30 seconds and 60 seconds, respectively. A BioRad iCycler was used (BioRad, Hercules, Calif., United States), and for quantitation the comparative cycle threshold (Ct) method was used, normalizing the Ct values for the indicated gene to the Ct values of GAPDH relative to a control sample. For conventional PCR, at least two independent sets of intron-spanning primers were used for the analysis of multiple genes, such as CRBP1, (NM_002899), E-cadherin, (L34545), SFRP1, (BC036503), SFRP2, (BC008666), and Gata-4 (L34357). For Western blots, cells stably expressing RNAi constructs were harvested in 50 mM Tris-HCl, 1% NP-40, 0.25% sodium deoxycholate, 150 mM NaCl, 50 mM sodium fluoride, 1 mM dithiothreitol, 1 mM AEBSF, 1× Complete protease inhibitor cocktail (Roche, Basel, Switzerland). Protein concentrations were measured by BCA (Pierce Biotechnology, Rockford, Ill., United States). […] On the same blot, β-actin (Sigma, St. Louis, Mo., United States) was probed to ensure equal loading.
# (§3) The results from experiments performed in RKO cells are shown in FIG. 7 which presents RT-PCR results for SFRP1. […] The expression seemed stronger than for 300 μM splitomycin (Spt) or 20 mM nicotinamide (Nia) when these latter two drugs were used alone or in combination, but not as strong as the expression induced by 1 μM of the DNA demethylating agent, deoxy-aza-cytidine (Aza). […] Experiments were carried out as essentially described above.
# [3] = test system: SFRP1 and 2 genes in human breast cancer cells (line H231); assay: Re-activation of SFRP1 and 2 genes in breast cancer cells (line H231); assay type: cell-based
# Experimental: This has been accomplished for the SFRP1 and 2 genes in human breast cancer cells (line H231) and for SFRP1 in human colon cancer cells (line RKO).
# as §3
# [4] = test system: SFRP1 and SFRP2 genes in MCF7 cells; assay: RT-PCR re-expression of silenced tumor suppressor genes in MCF7 cells; assay type: cell-based, human
# Experimental: as §1, §2
# [5] = test system: SFRP1, SFRP2, E-cadherin, CRBP1 genes in MDA-MB-231 cells; assay: RT-PCR re-expression of silenced tumor suppressor genes in MDA-MB-231 cells; assay type: cell-based, human; settings: MDA-MB-231 cells
# Experimental: The panels of FIG. 2 are as follows. […] MDA-MB-231 cells were treated with 15 mM NIA or 300 μM SPT for 21 hours, RNA was isolated, and RT-PCR was performed with intron-spanning primers specific for the indicated genes. Control samples in which no reverse transcriptase was added were analyzed separately, and all were negative for amplification of the indicated genes. […] MDA-MB-231 cells were treated with either 50 nM Aza (+), 100 μM SPT (+) or with both Aza and SPT (++), and 34 hours later, RT-PCR was performed for the indicated genes as described in FIG. 2(A). […] MDA-MB-231 cells were treated with either 0, 50, 100, or 120 μM SPT alone for 34 hours, or the treatment was followed by treatment with 300 nM TSA for 3 hours prior to RNA isolation and RT-PCR analysis. […] MDA-MB-231 cells were infected with low titers of virus for shRNA specific for SIRT1. Aza (100 nM) was added 24 hours prior to RNA isolation, and RT-PCR analysis was performed for the genes SFRP 1, SFRP2, and GAPDH as described in FIG. 2(A). […] As shown in the left panel, MDA-MB-231 cells were infected with a control (vec) or mutant SIRT1 virus (HY), and RT-PCR was performed as described in FIG. 2(A). MDA-MB-231 cells were infected with low titers of pBabe or pBabe-SIRT1H363Y retrovirus and subsequently treated with 100 nM Aza for 24 hours or with 300 nM TSA for 3 hours prior to harvest, and RT-PCR was performed.
# as §1, §2
# [6] = test system: SIRT1; assay: Western blot of SIRT1 protein after retroviral shRNA infection; assay type: cell-based, human; settings: MDA-MB-231 cells
# Experimental: as §1, §2
# [7] = test system: SFRP1, SFRP2, GATA4 promoter methylation in MDA-MB-231 cells; assay: Promoter DNA methylation by bisulfite sequencing and MSP; assay type: cell-based, human; settings: MDA-MB-231 cells stably infected
# Source text: The panels of FIG. 3 are as follows. […] Parallel samples analyzed in FIG. 1D were subjected to bisulfite sequencing of the SFRP1 promoter from MDA-MB-231 cells stably infected with control vector or RNAi-2 or RNAi-3 retrovirus. Open circles indicate unmethylated cytosines, and closed circles indicate methylated cytosines. Numbers at the bottom show the position of cytosines relative to the transcription start site, which is at position 0, and those with a minus sign (−) are upstream from this start site. The region sequenced encompasses the CpG island in which methylation status correlates with gene expression status. […] From left to right: (−) PCR Ctrl indicates H2O only; (−) BS ctrl indicates bisulfite-treated H20; (+) M ctrl indicates the cell line in which SFRP1 is partially methylated and SFRP2 and GATA4 are fully methylated; and (+) U ctrl indicates the Tera-2 cell line in which each gene is unmethylated. All remaining lanes are for MDA-MB-231. From left to right: Aza indicates 1 μM Aza (24 hours) treatment; Ctrl indicates empty vector infection; RNAi-2 indicates shRNA-2 infection alone; RNAi-3 indicates shRNA-3 infection alone; Aza indicates 1 μM Aza (24 hours treatment of control cells; Ctrl indicates empty vector infection+vehicle; RNAi-2 indicates shRNA-2 infection+5 mM NIA treatment; and RNAi-3 indicates shRNA-3 infection+5 mM NIA treatment.
# MSP and bisulfite sequencing. […]
molecule,measurement,setting,value
"NC(=O)[C@@H]1CCCc2c1[nH]c1ccc(Cl)cc21 [(R)-6-chloro-2,3,4,9-tetrahydro-1H-carbazole-1-carboxamide]",inhibition of SIRT1 deactylase activity,[1],inactive
same,SFRP1 RT-PCR specific band,[2],produces no specific band
"NC(=O)[C@H]1CCCc2c1[nH]c1ccc(Cl)cc21 [(S)-6-chloro-2,3,4,9-tetrahydro-1H-carbazole-1-carboxamide]",inhibition of SIRT1 deactylase activity,[1],potent inhibition
same,SFRP1 expression compared with 1 μM deoxy-aza-cytidine (Aza),[2]; RT-PCR,not as strong
same,"SFRP1 expression compared with 300 μM splitomycin or 20 mM nicotinamide, alone or in combination",[2]; RT-PCR,stronger
same,SFRP1 RT-PCR specific band,[2],produce the band at both time points
same,transcriptional re-activation of SFRP1 and 2 genes,[3],the same effects have been achieved
"NC(=O)c1cccnc1 [NIA, nicotinamide, reference compound]","re-expression of epigenetically silenced, hypermethylated TSGs","[4]; sirtuin inhibitors, data not shown",could cause the re-expression
same,"re-expression of epigenetically silenced, hypermethylated TSGs incl. CRBP1",[5]; 15 mM NIA or 300 μM SPT for 21 hours,could cause the re-expression
"RNAi-2: shRNA targeting SIRT1 mRNA, sequence GGCCACGGATAGGTCCATA, NM_012238 position 589",reduction of SIRT1 protein (knockdown),[6],very effective in reducing protein levels
same,"gene re-expression of SFRP1, SFRP2 and E-cadherin","[5]; shRNA retroviral infection, RT-PCR",led to gene re-expression
same,SFRP1 promoter methylation profile (bisulfite sequencing),[7],without changes in the methylation profile
B1,gene re-expression of SFRP1 and SFRP2,"[4]; retroviral infection, RT-PCR",re-expression of SFRP1 and SFRP2
same,re-expression of SFRP1 and SFRP2,[5]; dominant negative expressed through retroviral infection,re-expression of SFRP1 and SFRP2
same,"reactivation of SFRP1 (GATA-5 and SFRP2 data not shown), combined with Aza","[5]; low titers of retrovirus, 100 nM Aza for 24 hours",synergistic reactivation of SFRP1
same,"reactivation of SFRP1 (GATA-5 and SFRP2 data not shown), combined with TSA","[5]; low titers of retrovirus, 300 nM TSA for 3 hours",synergistic reactivation of SFRP1
